Assay results: article PMC6451745, “Development and dosimetry of ^203Pb/^212Pb-labelled PSMA ligands: bringing “the lead” into PSMA-targeted alpha therapy?” (European Journal of Nuclear Medicine and Molecular Imaging, 2019)
Values joined by “and” are separate entries in the source; they are usually repeats but may differ in a detail not shown here. Equal values may be shown once. Each block holds one compound with its values, some of them ahead of it.

How the values were obtained:
[1] = test system: C4-2 cells; assay: Determination of specific internalization ratio; format: cell-based
Experimental: (§1) In vitro and in vivo experiments were performed using the PSMA-positive C4-2 cell line, a subline of the LNCaP (lymph node carcinoma of the prostate) cell line (CRL-3314; American Type Culture Collection). C4-2 cells were cultivated in RPMI-1640 (PAN Biotech) supplemented with 10% fetal calf serum and stable glutamine (PAN Biotech). Cells were grown at 37 °C and incubated in humidified air equilibrated with 5% CO2.
For determination of the specific internalization ratio, 24-well plates were incubated for 20 min with 0.1% poly-L-lysine in PBS at room temperature and washed once with PBS. In the next step, 1 ml RPMI containing 1 × 10^5 C4-2 cells was added to each well and incubated overnight. The conditions during the experiment for each compound were: incubation at 37 °C or 4 °C with or without receptor blocking via 2-(phosphonomethyl)pentanedioic acid (2-PMPA; Axxora) at a final concentration of 500 μM. The cells were then incubated with 250 μl of a 30 nM solution of ^203Pb-labelled compound. The plates were incubated either for 45 min in a water bath at 37 °C or on ice at 4 °C. The cells were then washed three times with 1 ml ice-cold PBS and incubated with 0.5 ml glycine (50 mM in HCl, pH 2.8) for 5 min. After an additional washing step with 1 ml ice-cold PBS, the cells were lysed with 0.5 ml 0.3 M NaOH and collected, and the radioactivity was measured with a gamma counter for 1 min. The specific cellular uptake was determined as the percentage of initially added radioactivity bound per 10^6 cells (%IA/10^6 cells) by subtraction of the respective uptake under blocking conditions. All experiments were performed in triplicate.

[2] = test system: C4-2 tumour-bearing mice; assay: Biodistribution (organ distribution) in tumour-bearing mice; format: in vivo; details: 0.025 nmol i.v., C4-2 tumour-bearing mice, n = 3
Experimental: (§2) The in vivo experiments were carried out in accordance with the laws on animal welfare of the Federal Republic of Germany. For imaging and biodistribution studies, male BALB/c nu/nu mice (20–25 g; Charles River) bearing C4-2 tumour xenografts were used. The mice were inoculated subcutaneously in the right trunk with 5 × 10^6 C4-2 cells in 50% Matrigel in Opti-MEM (1×). For small-animal imaging the mice were anaesthetized with 2% sevoflurane, and then 0.1 nmol (1.0 MBq) of the respective ^203Pb ligand was injected into a tail vein. Serial planar scans were performed using a Gamma Imager-sct (Biospace Lab, Paris, France) with a parallel collimator (35 mm/1.8 mm/0.2 mm) after 10 min, 1 h, 4 h and 24 h. Based on the imaging results, compound CA012 was chosen for biodistribution studies. Experiments were performed in triplicate. For biodistribution, 0.025 nmol (1 MBq) of labelled compound per mouse was administered by injection into a tail vein. After 10 min, 1 h, 4 h and 24 h the mice were killed, the organs were dissected and weighed, and activity was measured using a gamma counter (Packard Cobra Auto-gamma). The organ uptakes were calculated as the percentage of the injected dose per gram of tissue (%ID/g).

[3] = test system: patients with castration-resistant metastasized prostate cancer; assay: ^203Pb-CA012 dosimetry from planar whole-body scans in patients (QDOSE/OLINDA); format: in vivo, human; details: diagnostic ^203Pb, two patients, male adult phantom in OLINDA
Experimental: OLINDA calculations were performed for all nuclides individually.

[4] = target: T1, PSMA (Homo sapiens, UniProt Q04609); assay: Competitive binding assay on C4-2 cells; details: reference ^68Ga-labelled PSMA-HBED-CC dimer (PSMA-10), mean ± SD
T1 construct: host or cells: C4-2 cells (LNCaP subline)
Experimental: as §1
A MultiScreenHTS-DV filter plate was incubated at room temperature with 100 μl phosphate-buffered saline (PBS) containing 1% bovine serum albumin (BSA) per well for 30 min. After removal of the PBS/BSA solution, 1 × 10^5 C4-2 cells in Opti-MEM were added to each well. All nonlabelled compounds were dissolved in 300 μl Opti-MEM at the following concentrations: 0, 0.5, 1, 2.5, 5, 10, 25, 50, 100, 500, 1,000 and 5,000 nM. Subsequently, 3 μl of the radiolabelled compound was added, and 50 μl of this mixture was taken to obtain a solution containing 0.75 nM of the radiolabelled ligand. After 45 min incubation at 37 °C, the cells were washed twice with PBS, the radioactivity accumulated in the cells was collected, and the remaining radioactivity was measured in a gamma counter. The inhibitory potency was determined using ^68Ga-labelled PSMA-HBED-CC dimer (i.e. PSMA-10) as the reference. The 50% inhibitory concentration was calculated using a nonlinear regression algorithm (GraphPad Prism 5.01 software). The experiments were performed in quadruplicate.

[5] = test system: C4-2 tumour-bearing mice; assay: Planar scintigraphic imaging in tumour-bearing mice; format: in vivo; details: ^203Pb-labelled, 1 h after injection, Fig. 3
Experimental: as §2

[6] = ^203Pb-labelled compound 30 nM, 45 min, 2-PMPA blocking subtracted, mean ± SD n = 3

T1 sequence (Q04609 whole entry): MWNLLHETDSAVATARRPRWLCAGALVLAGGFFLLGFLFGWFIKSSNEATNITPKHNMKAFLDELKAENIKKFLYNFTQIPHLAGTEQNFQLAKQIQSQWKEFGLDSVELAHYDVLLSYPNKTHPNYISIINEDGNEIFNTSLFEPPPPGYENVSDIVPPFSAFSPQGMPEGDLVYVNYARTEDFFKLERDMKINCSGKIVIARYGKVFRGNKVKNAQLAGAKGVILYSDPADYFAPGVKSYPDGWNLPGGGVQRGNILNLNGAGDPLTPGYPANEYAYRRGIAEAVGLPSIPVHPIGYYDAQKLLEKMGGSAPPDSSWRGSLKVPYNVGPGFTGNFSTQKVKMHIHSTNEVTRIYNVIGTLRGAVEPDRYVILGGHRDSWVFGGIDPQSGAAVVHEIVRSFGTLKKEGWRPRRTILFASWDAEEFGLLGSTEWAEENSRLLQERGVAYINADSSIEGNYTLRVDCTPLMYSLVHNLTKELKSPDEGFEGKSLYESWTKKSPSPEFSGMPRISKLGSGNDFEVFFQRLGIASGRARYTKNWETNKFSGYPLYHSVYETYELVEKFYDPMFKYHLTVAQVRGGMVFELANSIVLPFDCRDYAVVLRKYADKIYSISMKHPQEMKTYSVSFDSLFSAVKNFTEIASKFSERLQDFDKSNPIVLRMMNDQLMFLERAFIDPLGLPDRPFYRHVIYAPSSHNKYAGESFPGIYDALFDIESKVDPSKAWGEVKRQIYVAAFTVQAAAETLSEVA

- Organ distribution, Blood ([2]; 10 min): 5.37 ± 1.95 % ID/g
- Organ distribution, Brain ([2]; 10 min): 0.14 ± 0.04 % ID/g
- Organ distribution, Heart ([2]; 10 min): 1.78 ± 0.66 % ID/g
- Organ distribution, Kidneys ([2]; 10 min): 26.97 ± 8.74 % ID/g
- Organ distribution, Liver ([2]; 10 min): 1.25 ± 0.43 % ID/g
- Organ distribution, Lung ([2]; 10 min): 4.31 ± 1.19 % ID/g
- Organ distribution, Muscle ([2]; 10 min): 1.20 ± 0.43 % ID/g
- Organ distribution, Small intestine ([2]; 10 min): 1.75 ± 0.48 % ID/g
- Organ distribution, Spleen ([2]; 10 min): 1.97 ± 1.07 % ID/g
- Organ distribution, Tumor ([2]; 10 min): 12.33 ± 1.92 % ID/g
- Organ distribution, Blood ([2]; 1 h): 0.26 ± 0.10 % ID/g
- Organ distribution, Brain ([2]; 1 h): 0.02 ± 0.00 % ID/g
- Organ distribution, Heart ([2]; 1 h): 0.10 ± 0.03 % ID/g
- Organ distribution, Kidneys ([2]; 1 h): 5.08 ± 2.45 % ID/g
- Organ distribution, Liver ([2]; 1 h): 0.20 ± 0.10 % ID/g
- Organ distribution, Lung ([2]; 1 h): 0.33 ± 0.13 % ID/g
- Organ distribution, Muscle ([2]; 1 h): 0.05 ± 0.03 % ID/g
- Organ distribution, Small intestine ([2]; 1 h): 0.10 ± 0.04 % ID/g
- Organ distribution, Spleen ([2]; 1 h): 0.16 ± 0.08 % ID/g
- Organ distribution, Tumor ([2]; 1 h, listed as 203Pb-PSMA-CA012): 8.4 ± 3.7 % ID/g and 8.37 ± 3.67 % ID/g
- Organ distribution, Blood ([2]; 4 h): 0.05 ± 0.01 % ID/g
- Organ distribution, Brain ([2]; 4 h): 0.02 ± 0.01 % ID/g
- Organ distribution, Heart ([2]; 4 h): 0.04 ± 0.02 % ID/g
- Organ distribution, Kidneys ([2]; 4 h): 1.61 ± 0.28 % ID/g
- Organ distribution, Liver ([2]; 4 h): 0.09 ± 0.01 % ID/g
- Organ distribution, Lung ([2]; 4 h): 0.10 ±0.03 % ID/g
- Organ distribution, Muscle ([2]; 4 h): 0.06 ± 0.03 % ID/g
- Organ distribution, Small intestine ([2]; 4 h): 0.07 ± 0.05 % ID/g
- Organ distribution, Spleen ([2]; 4 h): 0.07 ± 0.01 % ID/g
- Organ distribution, Tumor ([2]; 4 h): 7.81 ±0.86 % ID/g
- Organ distribution, Blood ([2]; 24 h): 0.03 ± 0.00 % ID/g
- Organ distribution, Brain ([2]; 24 h): 0.01 ± 0.00 % ID/g
- Organ distribution, Heart ([2]; 24 h): 0.02 ± 0.00 % ID/g
- Organ distribution, Kidneys ([2]; 24 h): 0.89 ± 0.14 % ID/g
- Organ distribution, Liver ([2]; 24 h): 0.10 ± 0.02 % ID/g
- Organ distribution, Lung ([2]; 24 h): 0.05 ± 0.01 % ID/g
- Organ distribution, Muscle ([2]; 24 h): 0.02 ± 0.00 % ID/g
- Organ distribution, Small intestine ([2]; 24 h): 0.02 ± 0.00 % ID/g
- Organ distribution, Spleen ([2]; 24 h): 0.07 ± 0.02 % ID/g
- Organ distribution, Tumor ([2]; 24 h): 3.30 ± 1.60 % ID/g
- Effective dose [3]: 2.4 mSv/100 MBq
- Effective dose equivalent [3]: 3.6 mSv/100 MBq
- Equivalent dose, Adrenals [3]: 2.8 mSv/100 MBq
- Equivalent dose, Brain [3]: 1.2 mSv/100 MBq
- Equivalent dose, Breasts [3]: 1.1 mSv/100 MBq
- Equivalent dose, Gallbladder [3]: 2.8 mSv/100 MBq
- Equivalent dose, Heart [3]: 1.8 mSv/100 MBq
- Equivalent dose, Kidneys [3]: 18.1 mSv/100 MBq
- Equivalent dose, Liver [3]: 4.3 mSv/100 MBq
- Equivalent dose, Lower large intestine [3]: 2.0 mSv/100 MBq
- Equivalent dose, Lungs [3]: 1.6 mSv/100 MBq
- Equivalent dose, Muscle [3]: 1.5 mSv/100 MBq
- Equivalent dose, Osteogenic cells [3]: 3.7 mSv/100 MBq
- Equivalent dose, Pancreas [3]: 2.8 mSv/100 MBq
- Equivalent dose, Red marrow [3]: 1.8 mSv/100 MBq
- Equivalent dose, Skin [3]: 1.0 mSv/100 MBq
- Equivalent dose, Small intestine [3]: 2.1 mSv/100 MBq
- Equivalent dose, Spleen [3]: 6.7 mSv/100 MBq
- Equivalent dose, Stomach [3]: 2.0 mSv/100 MBq
- Equivalent dose, Testes [3]: 1.4 mSv/100 MBq
- Equivalent dose, Thymus [3]: 1.4 mSv/100 MBq
- Equivalent dose, Thyroid [3]: 1.4 mSv/100 MBq
- Equivalent dose, Total body [3]: 1.7 mSv/100 MBq
- Equivalent dose, Upper large intestine [3]: 2.1 mSv/100 MBq
- Equivalent dose, Urinary bladder [3]: 6.7 mSv/100 MBq
SMILES: NC(=O)CN1CCN(CC(N)=O)CCN(CC(=O)NCC2CCC(C(=O)NC(Cc3ccc4ccccc4c3)C(=O)NCCCC[C@H](NC(=O)N[C@@H](CCC(=O)O)C(=O)O)C(=O)O)CC2)CCN(CC(N)=O)CC1.[203Pb+2] (stereo partly shown) [^203Pb-CA012]
- specific ligand-induced internalization [1]: ~16 %IA/10^6 cells
- Specific lysate (specific internalization) [1, 6]: 15.6 ± 2.1 %IA/10^6 cells

SMILES: NC(=O)CN1CCN(CC(N)=O)CCN(CC(N)=O)C(Cc2ccc(NC(=S)NCC3CCC(C(=O)NC(Cc4ccc5ccccc5c4)C(=O)NCCCC[C@H](NC(=O)N[C@@H](CCC(=O)O)C(=O)O)C(=O)O)CC3)cc2)CN(CC(N)=O)CC1 (stereo partly shown) [CA009]
- specific ligand-induced internalization [1]: 27.4 ± 2.4 %IA/10^6 cells
- Specific cell surface [1, 6]: 106.5 ± 2.8 %IA/10^6 cells
- Specific lysate (specific internalization) [1, 6]: 27.4 ± 2.4 %IA/10^6 cells
- Ki [4]: 15.3 ± 3.1 nM

- Ki [4]: 28.8 ± 3.4 nM
- tumour uptake in mice (planar scintigraphy) [5]: low tumour uptake
SMILES: NC(=O)CN1CCN(CC(N)=O)CCN(CC(N)=O)C(Cc2ccc(NC(=S)NC(Cc3ccc4ccccc4c3)C(=O)NCCCC[C@H](NC(=O)N[C@@H](CCC(=O)O)C(=O)O)C(=O)O)cc2)CN(CC(N)=O)CC1 (stereo partly shown) [CA008]
